Several values for one entry are separate records, joined by “and”; a condition that tells them apart may be missing. Equal values may be shown once.
Tested on: skin graft rejection
Experiment: Skin graft transplantation model for HVGD
Assay type: in vivo, mice
Procedure: Recipient mice were dorsally transplanted with circular pieces of donor skin. Mice were inspected daily. Grafts were considered rejected when no viable donor epidermis remained. The results are expressed in mean survival time (MST). P values were obtained by analysis of variance (ANOVA).
[…] The first Cop 1 treatment on day −7 was injected sc in ICFA as a depot dose. Control mice were treated daily with PBS alone and PBS with ICFA on day −7 before transplantation.
Grafts were inspected daily. Rejection was considered positive when no viable donor epidermis remained. […]

## Glatiramer acetate [Cop 1]
B10.D2 → BALB/c, H-2d, Cop 1 600 μg/day (ip+sc) from day −7
  MST ± SD (Mean Survival Time of skin graft): 20.6 days and 20.6 ± 3.3 days
B10.D2 → BALB/c, H-2d, Cop 1 600 μg/day (ip+sc) from day −7, listed as Copolymer 1
  MST ± SD (Mean Survival Time of skin graft): 20.6 days
B10.D2 → BALB/c, 600 μg/day, text refers to Table 6, PBS 26 days
  mean graft survival time (MST): 34 days
B10.D2 → BALB/c, Cop 1 300 μg/day
  MST ± SD (Mean Survival Time of skin graft): 20.4 ± 4.5 days
B10.D2 → BALB/c, Cop 1 300 μg/day, listed as Copolymer 1
  MST ± SD (Mean Survival Time of skin graft): 20.4 days
B10PL → PL/J, H-2u, Cop 1 600 μg/day
  MST ± SD (Mean Survival Time of skin graft): 17.6 ± 5.1
C57BL → C3HSW, H-2b → H-2d, Cop 1 600 μg/day
  MST ± SD (Mean Survival Time of skin graft): 18.5 ± 3.3
Haplotype H-2b, Cop 1 600 μg/day
  MST ± SD (Mean Survival Time of skin graft): 17.7 ± 2.1

— patent publication US7053043B1, “Pharmaceutical compositions comprising synthetic peptide copolymers and methods for preventing and treating GVHD and HVGD” (Yeda Research and Development Co.Ltd., priority 1999, dated 2006)
